Literature values as cited in patent US6844014B1, “Herbal healing lotion for veterinary use” (priority 2002, dated 2005).

Settings: treatment by previous veterinarian before the office visit

## C[C@]12CCC(=O)C=C1CC[C@@H]1[C@@H]2C(=O)C[C@@]2(C)[C@H]1CC[C@]2(O)C(=O)CO [cortisone]
  result of previous treatment of the lesion: no positive result was obtained
